The subject of data set [1] is C6 cells. The data set is described as follows: PDGF-stimulated DNA synthesis, C6 cells (3H-thymidine). The data set is classed as cell-based, rat. To be noted: 50 ng/ml PDGF-BB.
Data set [2] relates to 9L glioma. The data set can be described thus: SC xenograft in mice. Type of data set: in vivo, rat. The settings on record: nu/nu, 20 mg/kg/day, day 20. The method, then:
(§1) Cell lines were grown in appropriate medium (see Appendix 1). Cells were harvested at or near confluency with 0.05% Trypsin-EDTA and pelleted at 450×g for 10 min. Pellets were resuspended in sterile PBS or media (without FBS) to a particular concentration and the cells were implanted into the hindflank of mice. Tumor growth was measured over 3 to 6 weeks using venier calipers. Tumor volumes were calculated as a product of length×width×height unless otherwise indicated. P values were calculated using the Students' t-test.

The subject of data set [3] is SF763. The data set is described as follows: Xenograft in athymic mice. The settings on record: xenografted athymic mice. Type of data set: in vivo. The method, then: as §1
(§2) PDGF-R expression was measured qualitatively using a western blot.

Data set [4] deals with SF767. The data set is described as follows: Xenograft in athymic mice. Type of data set: in vivo. The settings on record: xenografted athymic mice. The method, then:
as §1, §2

Data set [5] deals with C6 cells. The data set is described as follows: Intracerebral C6 tumor, athymic mice, survival. To be noted: IC C6, athymic mice. Type of data set: in vivo, rat. The method, then:
FIG. 4. In two separate experiments, C6 cells (1×10^5 cells in 4 μL) were implanted into the cerebrum of BALB/c, nu/nu mice. […] V=vehicle control. n=8 to 12 (Expt #1), or 5 (Expt #2) animals per group. * P<0.00001; ** P<0.002; *** P<0.02 compared to vehicle control.
For the mouse IC model, rat C6 glioma cells were harvested and suspended in sterile PBS at a concentration of 2.5×10^7 cells/mL and placed on ice. Cells were implanted into BALB/c, nu/nu mice in the following manner: the frontoparietal scalps of mice were shaved with animal clippers if necessary before swabbing with 70% ethanol. Animals were anesthetized with isofluorane and the needle was inserted through the skull into the left hemisphere of the brain. Cells were dispensed from Hamilton Gas-tight Syringes using 30 gauge 1/2 inch needles fitted with sleeves that allowed only a 3 mm penetration. A repeater dispenser was used for accurate delivery of 4 μL of cell suspension.

The test system of data set [6] is WEHI-164.13 cells. The data set is described as follows: CTL generation in tumor-bearing mice (MLTC). The data set is classed as in vivo, mouse. Further details: CTL activity: key to the marks not given beside the values. To be noted: 20 mg/kg/day. The method, then: BALB/c mice received SC implants of syngeneic WEHI-164.13 fibrosarcoma cells on day 0. […] On day 17, the animals were sacrificed and their spleens were removed. The spleen cells were assayed in vitro for responses to alloantigens and mitogens.
The spleen cells were also assayed for the generation of WEHI-164.13-specific cytotoxic T-lymphocytes (CTL) in the mixed lymphocyte tumor cell culture (MLTC). Spleen cells from untreated tumor-bearing animals mounted a vigorous CTL response (44% specific lysis at E:T=50:1). This response was inhibited almost completely in animals receiving the vehicle alone (13% specific lysis). […] (Walia, et al., Proc. Soc. Exp. Biol. Med., 192:177-200, 1989.)

The test system of data set [7] is C6 cells. The data set is described as follows: CTL generation in tumor-bearing rats (MLTC). Type of data set: in vivo, rat. The settings on record: 8.4 mg/kg/day. The method, then:
Wistar rats received SC implants of C6 cells on day 0. […] The control group was not treated after tumor implantation. On day 21, the animals were sacrificed and the spleens were removed for in vitro analyses. Splenocytes were stimulated with ConA, LPS, and alloantigen (DA rat spleen cells) as in the murine studies.
The spleen cells from Wistar rats were also assayed for the generation of C6-specific CTL in the MLTC and the results summarized in Table XXI. Spleen cells from tumor-bearing, untreated animals mounted a vigorous CTL response (35% specific lysis at E:T=100:1), while cells from non-tumor bearing control rats mounted a weak response (13% specific lysis at E:T=100:1). Similar to the studies in BALB/c mice, it appeared that the vehicle inhibited the generation of CTL in a 7-day culture.

For data set [8] the following is noted: mouse, in vivo. The method, then:
Plasma was prepared and frozen in liquid nitrogen. Tissues and organs were resected and immediately frozen in liquid nitrogen. After the addition of an internal standard, plasma samples were acidified with HCl and extracted with acetonitrile. The acetonitrile fraction was evaporated to dryness in a vacuum centrifuge with heating and redissolved in methanol. Tissue and organ samples were homogenized according to the weight ratio of 1:5 (w:v) in 50 mM Tris-HCl, pH 7.4, at 20,000 rev/min, using a tissue homogenizer (Brinkmann Polytron Model PT3000). After the addition of an internal standard, the homogenate was acidified with HCl and then extracted with acetonitrile. The acetonitrile fraction was then extracted with an equal volume of diethyl ether. The ether fraction was evaporated to dryness in a vacuum centrifuge with heating and redissolved in methanol.
Samples for HPLC analysis were injected onto a Hewlett Packard Hypersil 5-μm C18 cartridge column (100×4.6 mm). The mobile phase was methanol:35 mM KH2 PO4 (pH 4.5) 55:45 containing 4 mM triethylamine. The flow rate was 1.2 mL/min. The compounds were monitored by UV absorption at 254 nm using a Hewlett-Packard diode-array detector (HP Model 1090). Plasma and tissue concentrations were determined from standard curves using peak area for quantitation. […] The internal standard used was 5-methyl-pyrazole-4-carboxylic acid-(4-trifluoromethyl)-anilide.
Table XXII. […] Plasma and brain samples were prepared and analyzed by HPLC as described in Appendix 6. All results were calculated by the method of internal standardization. NT= not tested, ND= not detected.

Read-outs that look alike come from different tables or passages of the source.

As a reminder, the % Inhibition is the change of the read-out against control, counted positive when it falls. Regarding `Cc1oncc1C(=O)Nc1ccc(C(F)(F)F)cc1` [Compound A10, 5-methylisoxazole-4 carboxylic acid-(4-trifluromethyl)-anilide], in data set [1], the “PDGF-stimulated DNA synthesis” value is on record as “decreased PDGF-stimulated DNA synthesis in both types of cells”. For the same compound, the “% Inhibition” value in data set [2] amounted to 83%. Also, the “In Vivo inhibition” value in data set [3] was determined as 35%; in data set [4], 18%. Moreover, the average survival time result in data set [5] is recorded as “significantly increased compared to controls”. Further, in data set [6] (vehicle 13%, untreated 44%), the “CTL response, specific lysis” value is recorded as 78%. Besides, the CTL activity result is listed as “++” in data set [6] (Tumor stimulus) and 0 in data set [7] (Tumor stimulus). Besides, the “CTL generation” value in data set [7] is on record as “did not overcome the inhibitory effect of the vehicle in immunocompetent rats”. Besides, the “plasma concentration, single dose” value in data set [8] (20 mg/kg) and in data set [8] (40 mg/kg) was “not detected” in each case.

These data come from patent US6331555A, “Treatment of platelet derived growth factor related disorders such as cancers” (priority 1999, dated 2001).
